MIC data for one compound are collected here from patent US20210169078A1, “AGENT FOR SUPPRESSING MICROBIAL GROWTH, METHOD FOR PREVENTING MICROBIAL CONTAMINATION, AND BEVERAGE” (priority 2018, published 2021).

What all share (format): cell-based
Experiment [1] concerns Bacillus welchii (Clostridium perfringens JCM 1290). Nature of the experiment: organism not typed. The following applies: 24 h.
Experiment [2] deals with Staphylococcus aureus (Staphylococcus aureus subsp. aureus NBRC 12732). Nature of the experiment: Agar plate dilution MIC test. The following applies: NBRC12732, Mueller Hinton Agar, 37 ± 1 °C, 18 to 20 hours, aerobic.
In experiment [3] the test system is Clostridium difficile (spores) (Clostridium difficile ATCC 9689). The experiment is described as follows: Agar plate dilution MIC test. The following applies: Clostridioides difficile, ATCC9689; Clostridium difficile ATCC 9689 (spores); taurocholic acid-containing BHIA medium, 37 ± 1 °C, 18 to 20 hours, anaerobic.
Experiment [4] relates to Thermo-Acidophilic Bacilli (Alicyclobacillus acidoterrestris ATCC 49025). Nature of the experiment: Agar plate dilution MIC test. The following applies: ATCC49025, 120 h, YSG agar medium, 50 ± 1 °C, 5 days, aerobic.
Experiment [5] deals with Bacillus cereus (Bacillus cereus IFO 13494). Nature of the experiment: Agar plate dilution MIC test. The following applies: IFO13494, Mueller Hinton Agar, 37 ± 1 °C, 18 to 20 hours, aerobic.

≈ marks a conversion by molar mass, not a printed value.

Take `COc1cc(O)c(CC=C(C)C)c2c1C(=O)CC(c1ccc(O)cc1)O2` (centres unmarked) [Isoxanthohumol]: the minimal inhibitory concentration (MIC) – broadly, the least concentration at which growth counts as inhibited – in experiment [1] was 50 µg/mL (≈ 141 µM); in experiment [2], 50 µg/mL (≈ 141 µM); in experiment [3] it was 50 µg/mL (≈ 141 µM); in experiment [4], 25 µg/mL (≈ 70.5 µM); in experiment [5] it was 50 µg/mL (≈ 141 µM).
